# Test system: activated CD8+T-cells (ATC)
# Test: Activated T-cell (ATC) migration induced by individual chemokines, inhibition by peptide
# Format: cell-based, human
# Details: for inhibition of CCL19, CCL21, CXCL9, and CXCL11-induced migration of ATCs compared to parental HD2: peptide 10 uM, chemokines at EC80, Dunnett's test
# Method: Cell lines were confirmed mycoplasma free by monthly testing using a MycoAlert^TM kit (LT07-118, Lonza) following the manufacturer’s instructions. THP1 cells: THP1 cells (ECACC 88081201, a human monocyte leukemia cell line[51]) were obtained from ECACC and were cultured in T175 flasks at 0.3-1 × 10^6 cells/mL in Roswell Park Memorial Institute (RPMI) 1640 medium (R0883, Sigma) with 10% FBS (F9665, Sigma) and 5mM L-glutamine (G7513, Sigma), 37 °C, 5% CO2. J:CXCR1 cells: The J:CXCR1 cell line was cultured in the same manner as THP1 cells at 0.15-1 × 10^6 cells per mL[37]. Activated T-cells: T-cells were isolated, activated and expanded as follows. Briefly, density gradient centrifugation using Lymphoprep^TM density gradient medium (07801, […] Technologies) and a SepMate^TM isolation tube (85450, […] Technologies) was used to isolate peripheral blood mononuclear cells from human leukocyte cones. Two rounds of purification using a human CD8 + T-cell isolation kit (480011, BioLegend) were used to isolate CD8 + T-cells from peripheral blood mononuclear cells. Activation of CD8 + T-cells was performed in ImmunoCult^TM-XF T-cell expansion medium (10982, […] Technologies) with an anti-CD3/anti-CD28 T-cell activator at 25 μl/ml (10991, […] Technologies), supplemented with 10 ng/ml recombinant human IL-2 (200-02, PeproTech) with 1% penicillin/streptomycin. T-cells were passaged every 2–3 days in TexMACS medium (130-097-196, Miltenyi Biotec), supplemented with 10 ng/ml human IL-2 (200-05-250, Peprotech) and incubated at 37 °C in 5% CO2. CD8 + T-cells were frozen at day 10-13 after initial activation, at 20×10^6 cell/ml in TexMACS medium supplemented with 10% DMSO (D2650, Sigma) in liquid nitrogen. Activated CD8^+ T-cells were recovered in TexMACs medium at 0.3 × 10^6 cell/ml and incubated at 37 °C in 5% CO2, 24 h prior to use. For buffy coat experiments a mixture of primary human monocytes, granulocytes and lymphocytes was isolated from human buffy coat. Briefly, RBCs were sedimented in HetaSep (07806, […] Technologies) with 1 mL of HetaSep per 5 mL of blood for 15 min at 37 °C. The buffy coat layer was collected from the top and washed in 50 ml MACS buffer (PBS (P4417, Sigma), 0.5% BSA (A7030, Sigma), 0.075% EDTA (E5134, Sigma), pH 7.2), by centrifugation at 2000 g for 10 min at room temperature. The pellet was resuspended in 10 mL of 1x RBC lysis solution (130-094-183, Miltenyi Biotec) and lysed for 10 min at room temperature. The cells were then washed in MACS buffer twice as above. The final pellet was resuspended in 1 mL of MACS buffer per 5 mL of initial blood volume and counted using cell size FSC-H/SSC-H parameters with gate settings previously defined by immunostaining (see below). The leukocytes were then resuspended in assay buffer for cell migration and used within 30 min of isolation.
# Cell counts were determined using an ATTUNE NxT Flow Cytometer with Cytkick autosampler (ThermoFisher), based on cell size parameters FSC-H/SSC-H, with previously defined gate settings. FSC-H/SSC-H gate settings for primary white blood cells from buffy coats were determined using flow cytometry to establish the granulocyte, monocyte and lymphocyte populations (Supplementary Fig. 13). Briefly, cells were labelled with anti-CD3 (Miltenyi Biotec, 130-113-135) to identify the T cell population, anti-CD14 (Miltenyi Biotec, 130-110-578) to identify the monocyte population, and with anti-CD16 (Miltenyi Biotec, 130-113-951) to identify the granulocyte population. Negative control cells were labelled with anti-human IgG1 (Miltenyi Biotec, 130-113-434). All antibodies were allophycocyanin (APC) conjugated. 100,000 white blood cells were added to Eppendorf tubes and centrifuged at 300 g for 3 min. The supernatant was discarded, and the cells resuspended in 98 µL of MACS buffer (1× PBS, 2 mM EDTA and 0.5% BSA, sterile filtered). 2 µl of antibody was added to the cells. […]
Sequence,"inhibition of chemokines e.g. CCL19, CCL21 and CXCL11 (ATC migration, statement of the discussion)","inhibition of CCL19, CCL21, CXCL9, and CXCL11-induced migration of ATCs compared to parental HD2"
"EEDDWTAYAPLTCYFT [HD2Y5W, HD2 point mutant]",de novo inhibition,significant improvement in inhibition
"EEDDYWAYAPLTCYFT [HD2T6W, HD2 point mutant]",–,significant improvement in inhibition
